The values that follow come from the OligoGym collection.

The data set deals with SNHG14. The settings on record: ASO.

After the bases stand the sugars from the 5' end (letter, count) and the backbone: PS all phosphorothioate, else s phosphorothioate and o phosphodiester by linkage. Methylation of C is not given here. l = locked nucleic acid (LNA); d = 2'-deoxy (DNA)

Take “AGCAACATTATTAACCAC (sugars llldlddddddddlddll, PS)”: the target mRNA inhibition (Human Neuronal Cell, 7.5 µM) is 46%.

“TTATAGCCATTCTATCT (sugars ldddldddddddlldll, PS)”: the target mRNA inhibition (Human Neuronal Cell, 7.5 µM) came out at 24%. For the sequence “TTTTTTTCTTACTATCTTCA (sugars ldddllddddddddddldll, PS)”, for the setting “Human Neuronal Cell, 7.5 µM”, the target mRNA inhibition was found to be 50%. For AGTTCACTACTATTAC (sugars l3 d10 l3, PS), the target mRNA inhibition came to 52% (Human Neuronal Cell, 0.2 µM) and 63% (Human Neuronal Cell, 1 µM). Regarding “AGCAACATTATTAACCACC (sugars l2 d11 l1 d3 l2, PS)”, for the setting “Human Neuronal Cell, 7.5 µM”, the target mRNA inhibition was 48%. With “TCCTTTAGCATTTCTAT (sugars l3 d11 l3, PS)”, the target mRNA inhibition (Human Neuronal Cell, 0.2 µM) was determined as 45% and the target mRNA inhibition (Human Neuronal Cell, 1 µM) turned out to be 60%. For the sequence “ATCTTTCCATTTATTTCCA (sugars l1 d1 l1 d14 l2, PS)”, the target mRNA inhibition (Human Neuronal Cell, 7.5 µM) was 41%.

“TACATTATTATTTAACC (sugars l4 d11 l2, PS)”: the target mRNA inhibition reads like this: (Human Neuronal Cell, 0.2 µM) 11%; (Human Neuronal Cell, 1 µM) 6%. Take “GTTTCCATCTACTATTAA (sugars ldlllddddddddlddll, PS)”: the target mRNA inhibition (Human Neuronal Cell, 7.5 µM) amounted to 49%. As for “CTGTATACACCATCCCA (sugars l1 d12 l1 d1 l2, PS)”, where the note is “Human Neuronal Cell, 7.5 µM”, the target mRNA inhibition was determined as 58%. CTATTCCAGTTTAAAT (sugars l4 d10 l2, PS): the target mRNA inhibition by setting is: (Human Neuronal Cell, 0.2 µM) 33%; (Human Neuronal Cell, 1 µM) 44%. For “TTCTGTATACACCATCC (sugars l1 d1 l2 d11 l2, PS)”, the target mRNA inhibition (Human Neuronal Cell, 7.5 µM) amounted to 55%. In the case of “TATCTTTGACATTCCAT (sugars l2 d11 l4, PS)”, the target mRNA inhibition is 48% (Human Neuronal Cell, 0.2 µM) and 52% (Human Neuronal Cell, 1 µM).

As to “TACACTTAATTATACTTCCA (sugars lddldldddddddlldddll, PS)”, the target mRNA inhibition (Human Neuronal Cell, 7.5 µM) came out at 55%. As to “CACACCTATTATATAAT (sugars l4 d11 l2, PS)”, the target mRNA inhibition (Human Neuronal Cell, 0.2 µM) was determined as 2% and the target mRNA inhibition (Human Neuronal Cell, 1 µM) was found to be 18%.

As for “TAAAATTATTTATACACCAT (sugars ldldllddddddddldllll, PS)”, the target mRNA inhibition (Human Neuronal Cell, 7.5 µM) is 45%.

Consider “ATTGATTCAATTCCCTT (sugars ldllddddddddlddll, PS)”, for which the target mRNA inhibition (Human Neuronal Cell, 7.5 µM) amounted to 74%. In the case of “TACTCTGCAATACACCA (sugars ldddlddddddddldll, PS)”, for the setting “Human Neuronal Cell, 7.5 µM”, the target mRNA inhibition came to 68%.

With “GTTCTACTATACTTTCCT (sugars l1 d14 l3, PS)”, the target mRNA inhibition (Human Neuronal Cell, 7.5 µM) worked out at 46%. On to “TAAAATTATTTATACACCA (sugars llldllddddddlllldll, PS)”, for which, for the setting “Human Neuronal Cell, 7.5 µM”, the target mRNA inhibition was found to be 7%. With “CCTAAAGATCCCATCAC (sugars l2 d12 l3, PS)”, the target mRNA inhibition was 34% (Human Neuronal Cell, 0.2 µM) and 51% (Human Neuronal Cell, 1 µM). For ATCAATATCTTCTCAC (sugars l3 d10 l3, PS), in that order: 54% and 62%. In the case of “TTGATTCAATTCCCTTA (sugars ldlldddddddldldll, PS)”, the target mRNA inhibition (Human Neuronal Cell, 7.5 µM) is 68%. For “TATCTTTCCATTTATTTCC (sugars lddddldddddddddldll, PS)”, the target mRNA inhibition (Human Neuronal Cell, 7.5 µM) came out at 52%. Turning to “AGCAACATTATTAACCACC (sugars l1 d15 l3, PS)”, the target mRNA inhibition (Human Neuronal Cell, 7.5 µM) stood at 38%.

For “ACTCTGCAATACACCAA (sugars l2 d1 l2 d9 l3, PS)”, the target mRNA inhibition (Human Neuronal Cell, 7.5 µM) amounted to 55%. Turning to “TTTATCAATATCTTCTCACT (sugars lddlddldddddddddddll, PS)”, the target mRNA inhibition (Human Neuronal Cell, 7.5 µM) came out at 28%.

“AATTATTTATACACCATCAT (sugars llldllddddddddlddlll, PS)”: the target mRNA inhibition (Human Neuronal Cell, 7.5 µM) was found to be 64%. Regarding “ACTGTTTATACCCTTTC (sugars l2 d9 l1 d3 l2, PS)”, the target mRNA inhibition (Human Neuronal Cell, 7.5 µM) was found to be 49%. As for “TTACCTACATCTCATACTT (sugars l3 d13 l3, PS)”, the target mRNA inhibition (Human Neuronal Cell, 0.2 µM) is -12%; the target mRNA inhibition (Human Neuronal Cell, 1 µM) is -3%; the target mRNA inhibition (Human Neuronal Cell, 5 µM) worked out at 13%; the target mRNA inhibition (Mouse Primary Neuronal Cell, 0.005 µM) was found to be 86.7%. As for “CTTACCAATAGTTACCT (sugars l3 d11 l3, PS)”, the target mRNA inhibition worked out at 49% (Human Neuronal Cell, 0.2 µM) and 54% (Human Neuronal Cell, 1 µM). For TCCATGCTACATAAAC (sugars l4 d10 l2, PS), the target mRNA inhibition (Human Neuronal Cell, 0.2 µM) amounted to 52% and the target mRNA inhibition (Human Neuronal Cell, 1 µM) is 56%. Turning to ATTCTCAATTGCACTT (sugars l4 d10 l2, PS), the target mRNA inhibition reads like this: (Human Neuronal Cell, 0.2 µM) 49%; (Human Neuronal Cell, 1 µM) 58%. As to “GTTCTCTTTATTTCTTCT (sugars l2 d12 l4, PS)”, the target mRNA inhibition (Human Neuronal Cell, 0.2 µM) is 31% and the target mRNA inhibition (Human Neuronal Cell, 1 µM) is 42%. The corresponding values for “ATTGATTCAATTCCCTT (sugars l2 d11 l4, PS)” are 62% and 69%. Turning to TGCTCACTAACTACAC (sugars l3 d10 l3, PS), the target mRNA inhibition is, setting by setting: (Human Neuronal Cell, 0.2 µM) 22%; (Human Neuronal Cell, 1 µM) 9%.

AGCTTTTAACCAGAGT (sugars l2 d10 l4, PS): where the note is “Human Neuronal Cell, 7.5 µM”, the target mRNA inhibition was found to be 81%. With “TTTTTTTCTTACTATCTTCA (sugars ldlldddddddddlddldll, PS)”, the target mRNA inhibition (Human Neuronal Cell, 7.5 µM) is 59%. For the sequence “TTGATTCAATTCCCTTA (sugars l2 d11 l4, PS)”, the target mRNA inhibition runs as follows: (Human Neuronal Cell, 0.2 µM) 60%; (Human Neuronal Cell, 1 µM) 69%. For “TTTATCAATATCTTCTCACT (sugars lddddlddddddddldddll, PS)”, the target mRNA inhibition (Human Neuronal Cell, 7.5 µM) turned out to be 34%. On to “TTTTTATACCTTTCTTTAAC (sugars ldddlldddddddlddddll, PS)”, for which the target mRNA inhibition (Human Neuronal Cell, 7.5 µM) was 15%. Turning to “AGCTTTTAACCAGAGTGGCA (sugars l1 d17 l2, PS)”, the target mRNA inhibition (Human Neuronal Cell, 7.5 µM) turned out to be 64%.

As to “TTATAGCCATTCTATCT (sugars l1 d1 l1 d9 l5, PS)”, the target mRNA inhibition (Human Neuronal Cell, 7.5 µM) came to 55%. For “AGTTCTACTATACTTTC (sugars l1 d10 l6, PS)”, for the setting “Human Neuronal Cell, 7.5 µM”, the target mRNA inhibition amounted to 47%. On to “TACACTTAATTATACTTCCA (sugars ldldddlddddddddlddll, PS)”, for which, for the setting “Human Neuronal Cell, 7.5 µM”, the target mRNA inhibition was determined as 58%. The same measure, in the same setting: to “ATCATTCTCAACAATTAAA (sugars l4 d8 l7, PS)” belongs 27%. On to “AAAATCTCAACTACCATTTT (sugars lldldlddddddddlldlll, PS)”, for which the target mRNA inhibition (Human Neuronal Cell, 7.5 µM) is 24%. As for “AAATTATTTATACACCATCA (sugars llddldldddddddddllll, PS)”, the target mRNA inhibition (Human Neuronal Cell, 7.5 µM) is 67%.

Regarding CTAAGCTCCATATTTA (sugars l4 d10 l2, PS), the target mRNA inhibition (Human Neuronal Cell, 0.2 µM) came out at 21% and the target mRNA inhibition (Human Neuronal Cell, 1 µM) was found to be 42%. Turning to CCTCAACTTCACCAAT (sugars l2 d10 l4, PS), the target mRNA inhibition reads like this: (Human Neuronal Cell, 0.2 µM) 37%; (Human Neuronal Cell, 1 µM) 49%. TATTGAACCAATTCTA (sugars l3 d10 l3, PS): the target mRNA inhibition reads like this: (Human Neuronal Cell, 0.2 µM) 34%; (Human Neuronal Cell, 1 µM) 47%. As for “CCATTTATTTCCATTTATT (sugars llddlddddddddldddll, PS)”, for the setting “Human Neuronal Cell, 7.5 µM”, the target mRNA inhibition came to 61%.

Regarding “TTTATCAATATCTTCTCAC (sugars lldldlddddddddldlll, PS)”, under “Human Neuronal Cell, 7.5 µM”, the target mRNA inhibition turned out to be 63%. Turning to CTAAATAGATTCCACT (sugars l2 d10 l4, PS), the target mRNA inhibition worked out at 26% (Human Neuronal Cell, 0.2 µM) and 52% (Human Neuronal Cell, 1 µM). The corresponding values for “TATCTATTTAATTTACAC (sugars l3 d12 l3, PS)” are 8% and 0%.

Take “AAAATTATTTATACACCATC (sugars ldldllddddddddlldlll, PS)”: where the note is “Human Neuronal Cell, 7.5 µM”, the target mRNA inhibition was 59%.

In the case of “GTTTATACCCTTTCCAAT (sugars ldldldddddddllddll, PS)”, the target mRNA inhibition (Human Neuronal Cell, 7.5 µM) was determined as 39%. As for “CTTGCATTTCTAATTAC (sugars l3 d11 l3, PS)”, the target mRNA inhibition was found to be 38% (Human Neuronal Cell, 0.2 µM) and 35% (Human Neuronal Cell, 1 µM). “TTATAGCCATTCTATCT (sugars lddldddddddldldll, PS)”: the target mRNA inhibition (Human Neuronal Cell, 7.5 µM) came out at 25%. “CTACACATCTTGTATAC (sugars l3 d11 l3, PS)”: the target mRNA inhibition reads like this: (Human Neuronal Cell, 0.2 µM) 40%; (Human Neuronal Cell, 1 µM) 52%. “TCTATATCAAGTTCCTT (sugars l2 d11 l4, PS)”: the target mRNA inhibition is, setting by setting: (Human Neuronal Cell, 0.2 µM) 51%; (Human Neuronal Cell, 1 µM) 43%.

Regarding “CTGTTTATACCCTTTCCA (sugars ldldldddddddddddll, PS)”, the target mRNA inhibition (Human Neuronal Cell, 7.5 µM) came to 56%.

Turning to “TTTCCATTTATTTCCATTT (sugars lddddldddddddldllll, PS)”, under “Human Neuronal Cell, 7.5 µM”, the target mRNA inhibition turned out to be 54%. With “ATATACCCAAAGGCACCT (sugars l3 d12 l3, PS)”, the target mRNA inhibition by setting is: (Human Neuronal Cell, 0.2 µM) -13%; (Human Neuronal Cell, 1 µM) 15%; (Human Neuronal Cell, 5 µM) 21%. For GCTTCATATTTCTCCA (sugars l2 d11 l3, PS), the target mRNA inhibition (Human Neuronal Cell, 1 µM) was determined as 63%.

Regarding “TGTCTATTCTCTTCATT (sugars l4 d11 l2, PS)”, the target mRNA inhibition (Human Neuronal Cell, 0.2 µM) is 37% and the target mRNA inhibition (Human Neuronal Cell, 1 µM) was 30%.

Consider TATAAGCTTACCTCAT (sugars l3 d10 l3, PS), for which the target mRNA inhibition stood at 50% (Human Neuronal Cell, 0.2 µM) and 66% (Human Neuronal Cell, 1 µM). For the sequence “TTTATCAATATCTTCTCACT (sugars lddlddddddddddlddlll, PS)”, the target mRNA inhibition (Human Neuronal Cell, 7.5 µM) came to 53%. Take “ATTTATTTCCATTTATTTTC (sugars ldllddddddddddlddlll, PS)”: the target mRNA inhibition (Human Neuronal Cell, 7.5 µM) amounted to 60%.

As for “GCAACATTATTAACCACCT (sugars ldlddlddddddlldddll, PS)”, under “Human Neuronal Cell, 7.5 µM”, the target mRNA inhibition was found to be 44%. Regarding “ATATTGATTCAATTCCC (sugars l2 d9 l2 d1 l3, PS)”, where the note is “Human Neuronal Cell, 7.5 µM”, the target mRNA inhibition came out at 66%. Turning to “AACTCTCACTGTAACTT (sugars l3 d11 l3, PS)”, the target mRNA inhibition is, setting by setting: (Human Neuronal Cell, 0.2 µM) 32%; (Human Neuronal Cell, 1 µM) 42%. Consider “TGTTTCCATCTACTATTA (sugars lddldddddddddlldll, PS)”, for which the target mRNA inhibition (Human Neuronal Cell, 7.5 µM) came out at 63%.

As for “TTTATCAATATCTTCTCA (sugars lddlllddddddddldll, PS)”, the target mRNA inhibition (Human Neuronal Cell, 7.5 µM) is 67%.

On to “GCTTTTAACCAGAGTGGCAT (sugars l1 d16 l3, PS)”, for which the target mRNA inhibition (Human Neuronal Cell, 7.5 µM) is 53%. With CTTTCCAATGAATCTA (sugars l2 d10 l4, PS), the target mRNA inhibition reads like this: (Human Neuronal Cell, 0.2 µM) 39%; (Human Neuronal Cell, 1 µM) 55%. Consider “TTATAGCCATTCTATCT (sugars l2 d9 l1 d1 l4, PS)”, for which the target mRNA inhibition (Human Neuronal Cell, 7.5 µM) is 49%.
